# Test results as given in ChEMBL document CHEMBL3885861, “Open TG-GATES”.
# Organism: Rattus norvegicus
# Test: Open TG-GATES - Regimen: Single
# Format: toxicity, organism-based, Sprague-Dawley
# Parameters: regimen Single, gender Male, age 6 weeks
# Conditions: in vivo, po, 0 mg/kg, route gavage, dose level Control; for Bas / Eos / Hb / Ht / Lym / MCH / MCHC / MCV / Mono / Neu / Plat / RBC / Ret / WBC: tissue Blood; for KIDNEY_L / KIDNEY_R / KIDNEY_TOTAL: tissue Kidney; for LIVER: tissue Liver; for A/G / ALP / ALT / AST / BUN / CRE / Ca / Cl / DBIL / GLC / IP / K / LDH / Na / PL / RALB / TBIL / TC / TG / TP / gamma-GTP: tissue Plasma
smiles,measurement,setting,value
Cc1ccc2cc3c(ccc4ccccc43)c3c2c1CC3 [3-METHYLCHOLANTHRENE],TERMINAL_BW,3 h,209.2 g
same,Bas,3 h,0%
same,Eos,3 h,0.6%
same,Hb,3 h,12.8 g/dL
same,Ht,3 h,39.3%
same,Lym,3 h,79.2%
same,MCH,3 h,20.8 pg
same,MCHC,3 h,32.6%
same,MCV,3 h,63.7 fL
same,Mono,3 h,3.6%
same,Neu,3 h,16.2%
same,Plat,3 h,126.1 x10_4/uL
same,RBC,3 h,616.6 x10_4/ul
same,Ret,3 h,8.7%
same,WBC,3 h,119.3 x10_2/uL
same,KIDNEY_L,3 h,0.9 g
same,KIDNEY_R,3 h,0.9 g
same,KIDNEY_TOTAL,3 h,1.9 g
same,LIVER,3 h,9.3 g
same,A/G,3 h,1.1
same,ALP,3 h,1726.2 IU/L
same,ALT,3 h,46.2 IU/L
same,AST,3 h,77.6 IU/L
same,BUN,3 h,10.5 mg/dL
same,CRE,3 h,0.1 mg/dL
same,Ca,3 h,10.7 mg/dL
same,Cl,3 h,104.3 meq/L
same,DBIL,3 h,0.002 mg/dL
same,GLC,3 h,185.2 mg/dL
same,IP,3 h,7.7 mg/dL
same,K,3 h,3.9 meq/L
same,LDH,3 h,179.6 IU/L
same,Na,3 h,140.3 meq/L
same,PL,3 h,163.8 mg/dL
same,RALB,3 h,2.8 g/dL
same,TBIL,3 h,0.002 mg/dL
same,TC,3 h,77.2 mg/dL
same,TG,3 h,142.8 mg/dL
same,TP,3 h,5.6 g/dL
same,gamma-GTP,3 h,0.7 IU/L
same,TERMINAL_BW,6 h,206.1 g
same,Bas,6 h,0%
same,Eos,6 h,0.6%
same,Hb,6 h,12.8 g/dL
same,Ht,6 h,38.9%
same,Lym,6 h,69%
same,MCH,6 h,20.7 pg
same,MCHC,6 h,32.8%
same,MCV,6 h,63.2 fL
same,Mono,6 h,3.4%
same,Neu,6 h,26.2%
same,Plat,6 h,124.5 x10_4/uL
same,RBC,6 h,616.2 x10_4/ul
same,Ret,6 h,8.7%
same,WBC,6 h,125.8 x10_2/uL
same,KIDNEY_L,6 h,0.9 g
same,KIDNEY_R,6 h,0.9 g
same,KIDNEY_TOTAL,6 h,1.8 g
same,LIVER,6 h,8.4 g
same,A/G,6 h,1
same,ALP,6 h,1728.2 IU/L
same,ALT,6 h,38 IU/L
same,AST,6 h,69.6 IU/L
same,BUN,6 h,8.9 mg/dL
same,CRE,6 h,0.1 mg/dL
same,Ca,6 h,10.4 mg/dL
same,Cl,6 h,104.5 meq/L
same,DBIL,6 h,0.002 mg/dL
same,GLC,6 h,201.6 mg/dL
same,IP,6 h,9.9 mg/dL
same,K,6 h,4.3 meq/L
same,LDH,6 h,114.8 IU/L
same,Na,6 h,139.9 meq/L
same,PL,6 h,142.4 mg/dL
same,RALB,6 h,2.7 g/dL
same,TBIL,6 h,0.014 mg/dL
same,TC,6 h,80.2 mg/dL
same,TG,6 h,51 mg/dL
same,TP,6 h,5.5 g/dL
same,gamma-GTP,6 h,0.7 IU/L
same,TERMINAL_BW,9 h,204.4 g
same,Bas,9 h,0%
same,Eos,9 h,0.6%
same,Hb,9 h,12.5 g/dL
same,Ht,9 h,38.9%
same,Lym,9 h,75.2%
same,MCH,9 h,20.7 pg
same,MCHC,9 h,32.1%
same,MCV,9 h,64.5 fL
same,Mono,9 h,2.6%
same,Neu,9 h,21%
same,Plat,9 h,129.6 x10_4/uL
same,RBC,9 h,603.8 x10_4/ul
same,Ret,9 h,9%
same,WBC,9 h,80.7 x10_2/uL
same,KIDNEY_L,9 h,1 g
same,KIDNEY_R,9 h,1 g
same,KIDNEY_TOTAL,9 h,1.9 g
same,LIVER,9 h,8.4 g
same,A/G,9 h,1
same,ALP,9 h,1550.4 IU/L
same,ALT,9 h,33.8 IU/L
same,AST,9 h,63.4 IU/L
same,BUN,9 h,10.6 mg/dL
same,CRE,9 h,0.1 mg/dL
same,Ca,9 h,10.6 mg/dL
same,Cl,9 h,103.4 meq/L
same,DBIL,9 h,0.004 mg/dL
same,GLC,9 h,176.6 mg/dL
same,IP,9 h,10.9 mg/dL
same,K,9 h,4.4 meq/L
same,LDH,9 h,137.8 IU/L
same,Na,9 h,141.6 meq/L
same,PL,9 h,132.2 mg/dL
same,RALB,9 h,2.7 g/dL
same,TBIL,9 h,0.006 mg/dL
same,TC,9 h,71.4 mg/dL
same,TG,9 h,52.7 mg/dL
same,TP,9 h,5.5 g/dL
same,gamma-GTP,9 h,0.7 IU/L
same,TERMINAL_BW,24 h,220.6 g
same,Bas,24 h,0%
same,Eos,24 h,0.6%
same,Hb,24 h,12.6 g/dL
same,Ht,24 h,38.4%
same,Lym,24 h,79.4%
same,MCH,24 h,20.5 pg
same,MCHC,24 h,32.7%
same,MCV,24 h,62.7 fL
same,Mono,24 h,3.2%
same,Neu,24 h,16%
same,Plat,24 h,119.3 x10_4/uL
same,RBC,24 h,612.8 x10_4/ul
same,Ret,24 h,8%
same,WBC,24 h,100 x10_2/uL
same,KIDNEY_L,24 h,0.9 g
same,KIDNEY_R,24 h,1 g
same,KIDNEY_TOTAL,24 h,1.9 g
same,LIVER,24 h,9.8 g
same,A/G,24 h,1
same,ALP,24 h,1697 IU/L
same,ALT,24 h,38 IU/L
same,AST,24 h,72 IU/L
same,BUN,24 h,13.8 mg/dL
same,CRE,24 h,0.1 mg/dL
same,Ca,24 h,10.9 mg/dL
same,Cl,24 h,103 meq/L
same,DBIL,24 h,0 mg/dL
same,GLC,24 h,186.2 mg/dL
same,IP,24 h,7.1 mg/dL
same,K,24 h,4.4 meq/L
same,LDH,24 h,181 IU/L
same,Na,24 h,142 meq/L
same,PL,24 h,160.8 mg/dL
same,RALB,24 h,2.8 g/dL
same,TBIL,24 h,0.006 mg/dL
same,TC,24 h,82 mg/dL
same,TG,24 h,134.9 mg/dL
same,TP,24 h,5.5 g/dL
same,gamma-GTP,24 h,0.8 IU/L
